According to PubChem BioAssay (NCI):
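Cells were grown in 96-well plates and exposed to each compound for 48 hours at five concentrations; endpoints were interpolated linearly between bracketing concentrations, or set to the highest concentration if not reached. GI50 = concentration required for 50% inhibition of growth. TGI is the concentration that stops growth completely.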 Where a SMILES comes first, the peptide text is derived from it. [ ]: non-standard residue; d: D form. The star is where a group is joined. ξ: configuration not given here. Decanoyl(3R-OH) = CCCCCCC[C@@H](O)CC(=O)*; ξK = NCCCCC(N)C(=O)O; ξP = O=C(O)C1CCCN1

Columns and labels:
Assay in all cases: DTP human tumour cell line panel, 48 h
[1] = tested on: SN12C renal
[2] = tested on: NCI-H226 lung
[3] = tested on: NCI-H23 lung
[4] = tested on: SK-MEL-28 melanoma
[5] = tested on: M14 melanoma
[6] = tested on: MDA-MB-231 breast
[7] = tested on: K-562 leukemia
[8] = tested on: EKVX NSCLC
[9] = tested on: OVCAR-4 ovarian
[10] = tested on: COLO 205 colon
[11] = tested on: T-47D breast
[12] = tested on: HCT-15 colon
[13] = tested on: RPMI-8226 leukemia
[14] = tested on: HCT-116 colon
[15] = tested on: PC-3 prostate
[16] = tested on: HT29 colon
[17] = tested on: NCI-H522 lung
[18] = tested on: SNB-19 CNS
[19] = tested on: SF-268 CNS
[20] = tested on: SF-539 CNS
[21] = tested on: OVCAR-5 ovarian
[22] = tested on: NCI-H460 lung
[23] = tested on: HOP-62 NSCLC
[24] = tested on: SNB-75 CNS
[25] = tested on: RXF 393 renal
[26] = tested on: OVCAR-8 ovarian
[27] = tested on: UACC-62 melanoma
[28] = tested on: HOP-92 NSCLC
[29] = tested on: CCRF-CEM leukemia
[30] = tested on: TK-10 renal
[31] = tested on: SK-OV-3 ovarian
[32] = tested on: HCC-2998 colon
[33] = tested on: 786-0 renal
[34] = tested on: SR leukemia
[35] = tested on: SW-620 colon
[36] = tested on: DU-145 prostate
[37] = tested on: MALME-3M melanoma
[38] = tested on: U251 CNS
[39] = tested on: A549 NSCLC
[40] = tested on: NCI/ADR-RES ovarian
[41] = tested on: ACHN renal
[42] = tested on: KM12 colon
[43] = tested on: HL-60(TB) leukemia
[44] = tested on: UACC-257 melanoma
[45] = tested on: HS 578T breast
[46] = tested on: SK-MEL-5 melanoma
[47] = tested on: MCF7 breast
[48] = tested on: MOLT-4 leukemia
[49] = tested on: IGROV1 ovarian
[50] = tested on: UO-31 renal
[51] = tested on: SK-MEL-2 melanoma
[52] = tested on: A498 renal

With Nc1[nH]c(=O)nc2sc3c(c12)CCCC3 the TGI [1] was over 100 µM, the TGI [2] was 88.8 µM and the TGI [3] was over 100 µM. For the same compound, the TGI [4] was over 100 µM, the TGI [5] was over 100 µM and the TGI [6] was over 100 µM. It also gave a TGI [7] of over 100 µM, a TGI [8] of over 100 µM and a TGI [9] of over 100 µM. The TGI [10] was over 100 µM, the TGI [11] was over 100 µM and the TGI [12] was over 100 µM. It also gave a TGI [13] of over 100 µM, a TGI [14] of over 100 µM and a TGI [15] of over 100 µM. For the same compound, the TGI [16] was over 100 µM, the TGI [17] was over 100 µM and the TGI [18] was over 100 µM. For the same compound, the TGI [19] was over 100 µM, the TGI [20] was over 100 µM and the TGI [21] was over 100 µM. It also gave a TGI [22] of over 100 µM, a TGI [23] of over 100 µM and a TGI [24] of 64.4 µM. It also gave a TGI [25] of over 100 µM, a TGI [26] of over 100 µM and a TGI [27] of over 100 µM. The TGI [28] was over 100 µM, the TGI [29] was over 100 µM and the TGI [30] was over 100 µM. It also gave a TGI [31] of over 100 µM, a TGI [32] of over 100 µM and a TGI [33] of over 100 µM. It also gave a TGI [34] of over 100 µM, a TGI [35] of over 100 µM and a TGI [36] of over 100 µM. For the same compound, the TGI [37] was over 100 µM, the TGI [38] was over 100 µM and the TGI [39] was over 100 µM. It also gave a TGI [40] of over 100 µM, a TGI [41] of over 100 µM and a TGI [42] of over 100 µM. It also gave a TGI [43] of over 100 µM, a TGI [44] of over 100 µM and a TGI [45] of 71.9 µM. For the same compound, the TGI [46] was over 100 µM, the TGI [47] was over 100 µM and the TGI [48] was over 100 µM. For the same compound, the TGI [49] was over 100 µM, the TGI [50] was over 100 µM and the TGI [51] was over 100 µM.
Work on CCCCCCC[C@@H](O)CC(=O)N[C@H](CCCCN)C(=O)N[C@H](Cc1c[nH]c2ccccc12)C(=O)NC(CCCCN)C(=O)N[C@H](CC(C)C)C(=O)N[C@H](Cc1ccccc1)C(=O)N[C@H](CCCCN)C(=O)N[C@H](CCCCN)C(=O)N[C@H](CC(C)C)C(=O)N1CCCC1C(=O)N[C@H](CCCCN)C(=O)N[C@H](Cc1ccccc1)C(=O)N[C@H](CC(C)C)C(=O)N[C@H](Cc1c[nH]cn1)C(=O)N[C@H](CC(C)C)C(=O)N[C@H](C)C(=O)N[C@H](CCCCN)C(=O)N[C@H](CCCCN)C(=O)N[C@H](Cc1ccccc1)C(=O)O (stereo partly drawn) ({Decanoyl(3R-OH)}-[dK][dW][ξK][dL][dF][dK][dK][dL][ξP][dK][dF][dL][dH][dL][dA][dK][dK][dF]-OH) yielded a GI50 [26] of 0.814 µM, a TGI [26] of 33.3 µM and a GI50 [36] of 0.607 µM. It also gave a TGI [36] of 1.12 µM, a GI50 [43] of 0.743 µM and a TGI [43] of 1.71 µM.
For C=CCOC(=O)CCCCCCCCCCCCCCCOC(=O)C1=C(CCC[C@@H](C)O[Si](C)(C)C(C)(C)C)N=C(N)N2[C@H](CC3(CC/C=C\[C@H](CC)O[Si](C(C)C)(C(C)C)C(C)C)OCCO3)CC[C@@H]12, the TGI [1] was over 100 µM, the TGI [2] was over 100 µM and the TGI [4] was over 100 µM. For the same compound, the TGI [52] was over 100 µM, the TGI [6] was over 100 µM and the TGI [9] was over 100 µM. For the same compound, the TGI [11] was over 100 µM, the TGI [18] was over 100 µM and the TGI [24] was over 100 µM. It also gave a TGI [30] of over 100 µM, a TGI [31] of over 100 µM and a TGI [32] of over 100 µM. For the same compound, the TGI [36] was over 100 µM, the TGI [41] was over 100 µM and the TGI [47] was over 100 µM. For the same compound, the TGI [50] was over 100 µM and the TGI [51] was over 100 µM.
